# PubChem BioAssay AID1963434 (Molecular Pharmacology Branch, DTP, NCI, 2024)
# System: 755483-174-R-J1-PDC complex spheroid growth, percent test/control
# Assay: Anticancer human tumor 755483-174-R-J1-PDC patient-derived rhabdomyosarcoma cell line growth inhibition [Asc]
# Conditions: for IC50: curve of first compound; for viability, T/C: stronger effect = lower value
# Experimental: Multicellular complex tumor spheroid response to apoptosis pathway targeting inhibitors Alrizomadlin, Pelcitoclax, and Dasminapant in combination with a variety of drugs and investigational agents in selected tumor cell lines
# The MDM2 inhibitor alrizomadlin, the Bcl-2/Bcl-xL inhibitor pelcitoclax, and the IAPs inhibitor dasminapant were evaluated both individually and in combination with standard of care and investigational anticancer small molecules within a complex spheroid model of solid tumors. . Complex spheroids include a stromal component modeled by human endothelial cells (HUVEC) and fibroblasts modeled by human mesenchymal stem cells (MSCs). The concentration ranges selected for each drug and investigational agent were based upon clinically achievable concentrations if the clinical Cmax of the agent was known.
# Compounds. The drugs and investigational agents: alrizomadlin (APG-115; NSC831270), pelcitoclax (APG-1252; NSC835773), dasminapant (APG-1387;NSC834197), TAK-243 (NSC785004), copanlisib (NSC809693), olaparib (NSC753686), talazoparib (NSC767125), cobimetinib (NSC 768068), eltanexor (KPT-8602, NSC 794443), abemaciclib (NSC 768073), sotorasib (NSC818433), adagrasib (NSC 831453), MRTX-1133 (NSC 836407), Iadademestat (ORY1001, NSC 806812), and RMC-4630 (NSC839698), were obtained from the NCI Developmental Therapeutics Program Chemical Repository. The FDA-approved anticancer drug set is available from the Developmental Therapeutics Program at https://dtp.cancer.gov/organization/dscb/obtaining/available plates.htm. […] The stock solutions were prepared in dimethyl sulfoxide (DMSO, Sigma-Aldrich, St. Louis, MO, cat. D2650) at 800-fold the tested concentration and stored at -70 degrees C prior to their use. All drugs and investigational agents were tested over a range starting from a high concentration at or near the clinical Cmax and decreasing in half-log increments. If the clinical Cmax for an agent had not been determined, the highest concentration tested was 10 microM.
# The patient-derived cancer (PDC) cell lines include five colon adenocarcinomas: 186277-243-T-J2-PDC, 616215-338-R-J1-PDC, 439559-082-T-J2-PDC, 463943-066-T-J2-PDC, and 519858-162-T-J1-PDC; three pancreatic carcinomas: 323965-272-R-J2-PDC, 521955-158-R6-J3-PDC, and 521955-158-R2-J5-PDC; two uterine sarcomas: 327498-152-R-J2-PDC and 993429-296-R-J1-PDC; two rhabdomyosarcomas: 755483-174-R-J1-PDC and 772245-204-R-J1-PDC; two soft tissue sarcomas: 126254-015-R-J1-PDC and 494315-158-R-J1-PDC; two malignant fibrous histiocytomas: 317291-083-R-J1-PDC and 596521-263-R-J1-PDC; two breast carcinomas: 171881-019-R-J1-PDC and 885512-296-R-J2-PDC; and one ovarian carcinoma: 6556581-035-R-J-PDC were obtained from the NCI PDMR, (https://pdmr.cancer.gov). The established cell lines HSSY-2 synovial sarcoma (RRID:CVCL 8719), SYO-1 synovial sarcoma (RRID:CVCL_7146), MPNST malignant peripheral neural sheath tumor were obtained from the Sloan Kettering Institute. The following established cell lines were purchased from the American Type Culture Collection (ATCC, Manassas, VA), Sor the received from the NCI repository:, PANC-1 pancreatic carcinoma (CRL-1469, RRID:CVCL_0480), OVCAR-5 ovarian carcinoma (RRID:CVCL_1628), OVCAR-8 ovarian carcinoma (RRID:CVCL_1629), , MCF-7 breast carcinoma (CRL-12584, RRID:CVCL_0031), MDA-MB-231 breast carcinoma (CRL-12532, RRID:CVCL_0062), NCI-H1876 small cell lung carcinoma (CRL-5902, RRID:CVCL_1503), NCI-H510A small cell lung carcinoma (HTB-184, RRID:CVCL_1565), NCI-H1417 (CRL-5869, RRID:CVCL_1469), and NCI-H196 small cell lung carcinoma (CRL-5823, RRID:CVCL_1509). Dr. Peter Houghton (Greehey Children's Cancer Research Institute, University of Texas Health Science Center, San Antonio, TX) provided Rh-18 rhabdomyosarcoma (RRID:CVCL_1659). Pooled donor human umbilical vein endothelial cells (HUVEC, Lonza, cat. CC-2519) and human mesenchymal stem cells (hMSC, Lonza, cat. PT-2501) were purchased from Lonza (Walkersville, MD).
# Cell Culture. […]
# [1] = second compound 0.03 µM, first compound 0.00316 µM
# [2] = second compound 0.03 µM, first compound 0.01 µM
# [3] = second compound 0.03 µM, first compound 0.0316 µM
# [4] = second compound 0.03 µM, first compound 0.1 µM
# [5] = second compound 0.0949 µM, first compound 0.00316 µM
# [6] = second compound 0.0949 µM, first compound 0.01 µM
# [7] = second compound 0.0949 µM, first compound 0.0316 µM
# [8] = second compound 0.0949 µM, first compound 0.1 µM
# [9] = second compound 0.3 µM, first compound 0.00316 µM
# [10] = second compound 0.3 µM, first compound 0.01 µM
# [11] = second compound 0.3 µM, first compound 0.0316 µM
# [12] = second compound 0.3 µM, first compound 0.1 µM
# [13] = second compound 0.949 µM, first compound 0.00316 µM
# [14] = second compound 0.949 µM, first compound 0.01 µM
# [15] = second compound 0.949 µM, first compound 0.0316 µM
# [16] = second compound 0.949 µM, first compound 0.1 µM
# [17] = second compound 3 µM, first compound 0.00316 µM
# [18] = second compound 3 µM, first compound 0.01 µM
# [19] = second compound 3 µM, first compound 0.0316 µM
# [20] = second compound 3 µM, first compound 0.1 µM
# [21] = second compound 0.03 µM, first compound 0.316 µM
# [22] = second compound 0.03 µM, first compound 1 µM
# [23] = second compound 0.0949 µM, first compound 0.316 µM
# [24] = second compound 0.0949 µM, first compound 1 µM
# [25] = second compound 0.3 µM, first compound 0.316 µM
# [26] = second compound 0.3 µM, first compound 1 µM
# [27] = second compound 0.949 µM, first compound 0.316 µM
# [28] = second compound 0.949 µM, first compound 1 µM
# [29] = second compound 3 µM, first compound 0.316 µM
# [30] = second compound 3 µM, first compound 1 µM
# 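Further: spheroids exposed to compounds for seven days before readout.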
SMILES,IC50 (second compound 0.03 µM) [nM],IC50 (second compound 0.0949 µM) [nM],IC50 (second compound 0.3 µM) [nM],IC50 (second compound 0.949 µM) [nM],IC50 (second compound 3 µM) [nM],"viability, T/C [1] [%]","viability, T/C [2] [%]","viability, T/C [3] [%]","viability, T/C [4] [%]","viability, T/C [5] [%]","viability, T/C [6] [%]","viability, T/C [7] [%]","viability, T/C [8] [%]","viability, T/C [9] [%]","viability, T/C [11] [%]","viability, T/C [12] [%]","viability, T/C [15] [%]","viability, T/C [16] [%]","viability, T/C [19] [%]","viability, T/C [20] [%]",further results
Cn1ncnc1[C@H]1c2n[nH]c(=O)c3cc(F)cc(c23)N[C@@H]1c1ccc(F)cc1 + CCN1C(C(=O)NC23CCC(C(=O)O)(CC2)CC3)C(c2cccc(Cl)c2F)C2(C(=O)Nc3cc(Cl)ccc32)C12CCCCC2,10.9,12.4,5.94,7.98,1.56,55.6,48.1,45.9,35.1,62.7,54.1,31.1,35.5,58.6,30.4,32.6,43.1,33.8,41.6,39.3,"viability, T/C (second compound 0.03 µM, first compound 0.000316 µM): 64.6%; viability, T/C (second compound 0.03 µM, first compound 0.001 µM): 64.9%; viability, T/C (second compound 0.0949 µM, first compound 0.000316 µM): 70.1%; viability, T/C (second compound 0.0949 µM, first compound 0.001 µM): 71.2%; viability, T/C (second compound 0.3 µM, first compound 0.000316 µM): 64.9%; viability, T/C (second compound 0.3 µM, first compound 0.001 µM): 55%; viability, T/C [10]: 42.7%; viability, T/C (second compound 0.949 µM, first compound 0.000316 µM): 66.6%; viability, T/C (second compound 0.949 µM, first compound 0.001 µM): 66.2%; viability, T/C [13]: 74%; viability, T/C [14]: 45.4%; viability, T/C (second compound 3 µM, first compound 0.000316 µM): 59.6%; viability, T/C (second compound 3 µM, first compound 0.001 µM): 51.8%; viability, T/C [17]: 45.5%; viability, T/C [18]: 45.5%"
O=C(c1cc(Cc2n[nH]c(=O)c3ccccc23)ccc1F)N1CCN(C(=O)C2CC2)CC1 + CCN1C(C(=O)NC23CCC(C(=O)O)(CC2)CC3)C(c2cccc(Cl)c2F)C2(C(=O)Nc3cc(Cl)ccc32)C12CCCCC2,1700,2560,1610,1570,1110,,,58.3,60.6,,,79.4,77,,80.3,63,86.2,69.2,71.3,70.8,"viability, T/C [21]: 68.3%; viability, T/C [22]: 48.4%; viability, T/C (second compound 0.03 µM, first compound 3.16 µM): 46%; viability, T/C (second compound 0.03 µM, first compound 10 µM): 23.4%; viability, T/C [23]: 72%; viability, T/C [24]: 64.3%; viability, T/C (second compound 0.0949 µM, first compound 3.16 µM): 46.5%; viability, T/C (second compound 0.0949 µM, first compound 10 µM): 26.1%; viability, T/C [25]: 55.8%; viability, T/C [26]: 57.7%; viability, T/C (second compound 0.3 µM, first compound 3.16 µM): 52%; viability, T/C (second compound 0.3 µM, first compound 10 µM): 28.6%; viability, T/C [27]: 66%; viability, T/C [28]: 58.4%; viability, T/C (second compound 0.949 µM, first compound 3.16 µM): 44.2%; viability, T/C (second compound 0.949 µM, first compound 10 µM): 20.9%; viability, T/C [29]: 50%; viability, T/C [30]: 49.5%; viability, T/C (second compound 3 µM, first compound 3.16 µM): 51.4%; viability, T/C (second compound 3 µM, first compound 10 µM): 27.5%"
O=C(c1ccc(F)c(F)c1Nc1ccc(I)cc1F)N1CC(O)([C@@H]2CCCCN2)C1 + CCN1C(C(=O)NC23CCC(C(=O)O)(CC2)CC3)C(c2cccc(Cl)c2F)C2(C(=O)Nc3cc(Cl)ccc32)C12CCCCC2,534,338,426,273,329,85.3,108,95.4,99.2,113,124,117,93.5,109,102,118,134,121,90,97.5,"viability, T/C [21]: 78.3%; viability, T/C [22]: 16%; viability, T/C [23]: 53%; viability, T/C [24]: 18.6%; viability, T/C [10]: 109%; viability, T/C [25]: 61%; viability, T/C [26]: 18.2%; viability, T/C [13]: 126%; viability, T/C [14]: 127%; viability, T/C [27]: 39.8%; viability, T/C [28]: 18.3%; viability, T/C [17]: 104%; viability, T/C [18]: 120%; viability, T/C [29]: 50.3%; viability, T/C [30]: 16.4%"
